Laboratory results reported in patent US7160897B2, “Therapeutic compounds” (SmithKline Beecham Corporation, priority 2000, dated 2007).
pIC50: −log10 of the molar value.

Tested on: HSV-1
Test: HSV-1 replication in Vero 76 cells, viral DNA hybridization capture assay
Assay type: cell-based, herpes simplex virus 1
Conditions: Human alphaherpesvirus 1; HSV-1 infected Vero 76 cells, MOI=0.001, 40–48 hours incubation, HSV DNA detected by hybridization/chemiluminescence
Description: Vero 76 cells were maintained in MEM with Earle's salts, L-glutamine, 8% FBS (Hyclone, A-1111-L) and 100 units/mL Penicillin-100 μg/mL Streptomycin. For assay conditions, FBS was reduced to 2%. Cells are seeded into 96-well tissue culture plates at a density of 5×10^4 cells/well after being incubated for 45 min at 37° C. in the presence of HSV-1 or HSV-2 (MOI=0.001). Test compounds are added to the wells and the plates are incubated at 37° C. for 40–48 hours. Cell lysates are prepared as follows: media was removed and replaced with 150 μL/well 0.2 N NaOH with 1% Igepal CA 630 or NP-40. Plates were incubated up to 14 days at room temperature in a humidified chamber to prevent evaporation.
For the detection probe, a gel-purified, digoxigenin-labeled, 710-bp PCR fragment of the HSV UL-15 sequence was utilized. PCR conditions included 0.5 μM primers, 180 μM dTTP, 20 μM dUTP-digoxigenin (Boehringer Mannheim 1558706), 200 μM each of dATP, dCTP, and dGTP, 1×PCR Buffer II (Perkin Elmer), 2.5 mM MgCl2, 0.025 units/μL of AmpliTaq Gold polymerase (Perkin Elmer), and 5 ng of gel-purified HSV DNA per 100 μL. Extension conditions were 10 min at 95° C., followed by 30 cycles of 95° C. for 1 min, 55° C. for 30 sec, and 72° C. for 2 min. The amplification was completed with a 10-min incubation at 72° C. Primers were selected to amplify a 728 bp probe spanning a section of the HSV1 UL15 open reading frame (nucleotides 249–977). Single-stranded transcripts were purified with Promega M13 Wizard kits. The final product was mixed 1:1 with a mixture of 6 M GuSCN, 100 mM EDTA and 200 μg/mL herring sperm DNA and stored at 4° C.
The capture DNA plasmid (HSV UL13 region in pUC) was linearized by cutting with Xba I, denatured for 15 min at 95° C. and diluted immediately into Reacti-Bind DNA Coating Solution (Pierce, 17250, diluted 1:1 with TE buffer, pH 8) at 1 ng/μL 75 μL/well were added to Corning (#3922 or 9690) white 96-well plates and incubated at room temperature for at least 4 hrs before washing twice with 300 μL/well 0.2×SSC/0.05% Tween-20 (SSC/T buffer). The plates were then incubated overnight at room temperature with 150 μL/well 0.2 N NaOH, 1% IGEPAL and 10 μg/mL herring sperm DNA.
Twenty-seven (27) μL of cell lysate was combined with 45 μL of hybridization solution (final concentration: 3M GuSCN, 50 mM EDTA, 100 μg/ml salmon sperm DNA, 5× Denhardt's solution, 0.25×APE, and 5 ng of the digoxigenin-labeled detection probe). APE is 1.5 M NH4-acetate, 0.15 M ammonium phosphate monobasic, and 5 mM EDTA adjusted to pH 6.0. Mineral oil (50 μL) was added to prevent evaporation. The hybridization plates were incubated at 95° C. for 10 minutes to denature the DNA, then incubated at 42° C. overnight The wells were washed 6× with 300 μL/well SSC/T buffer then incubated with 75 μL/well anti-digoxigenin-HRP-conjugated antibody (Boehringer Mannheim 1207733, 1:5000 in TE) for 30 min at room temperature. The wells were washed 6× with 300 μL/well with PBS/0.05% Tween-20 before 75 μL/well SuperSignal LBA substrate (Pierce) was added. The plates were incubated at room temperature for 30 minutes and chemiluminescence was measured in a Wallac Victor reader.
The following results were obtained for HSV-1.

Row | SMILES | pIC50
1 | Fc1ccc(-c2nn3ccc(Cl)cc3c2-c2ccnc(Nc3ccccc3)n2)cc1 [Example 6, 4-[5-Chloro-2-(4-fluorophenyl)pyrazolo[1,5-α]pyridin-3-yl]-N-phenyl-2-pyrimidinamine] | 4.85
2 | COc1cc(Nc2nccc(-c3c(-c4ccc(F)cc4)nn4c(NC5CCCC5)cccc34)n2)cc(OC)c1OC [Example 2, N-Cyclopentyl-2-(4-fluorophenyl)-3-[2-(3,4,5-trimethoxyanilino)-4-pyrimidinyl]pyrazolo[1,5-α]pyridin-7-amine] | 6.40
3 | Fc1ccc(-c2nn3c(NC4CCCC4)cc(Cl)cc3c2-c2ccnc(Nc3ccccc3)n2)cc1 [Example 8, 3-(2-Anilino-4-pyrimidinyl)-5-chloro-N-cyclopentyl-2-(4-fluorophenyl)pyrazolo[1,5-α]pyridin-7-amine] | 6.80
4 | COc1ccc(-c2nn3c(NC4CCCC4)cccc3c2-c2ccnc(Nc3cccc(N)c3)n2)cc1 [Example 12, N^1-{4-[7-(Cyclopentylamino)-2-(4-methoxyphenyl)pyrazolo[1,5-α]pyridin-3-yl]-2-pyrimidinyl}-1,3-benzenediamine] | 6.15
5 | COc1ccc(Nc2nccc(-c3c(-c4ccc(F)cc4)nn4c(NC5CCCC5)cccc34)n2)cc1 [Example 3, N-Cyclopentyl-2-(4-fluorophenyl)-3-[2-(4-methoxyanilino)-4-pyrimidinyl]pyrazolo[1,5-α]pyridin-7-amine] | 5.90
6 | COc1ccc(-c2nn3c(NC4CCCC4)cccc3c2-c2ccnc(Nc3cccc(N=[N+]=[N-])c3)n2)cc1 [Example 13, 3-[2-(3-Azidoanilino)-4-pyrimidinyl]-N-cyclopentyl-2-(4-methoxyphenyl)pyrazolo[1,5-α]pyridin-7-amine] | 6.10
7 | Fc1ccc(-c2nn3ccc(NC4CCCC4)cc3c2-c2ccnc(Nc3ccccc3)n2)cc1 [Example 7, N-[3-(2-Anilino-4-pyrimidinyl)-2-(4-fluorophenyl)pyrazolo[1,5-α]pyridin-5-yl]-N-cyclopentylamine] | 5.48
8 | COc1ccc(-c2nn3c(NC4CCCC4)cccc3c2-c2ccnc(Nc3cccc([N+](=O)[O-])c3)n2)cc1 [Example 10, N-Cyclopentyl-2-(4-methoxyphenyl)-3-[2-(3-nitroanilino)-4-pyrimidinyl]pyrazolo[1,5-α]pyridin-7-amine] | 6.00
9 | CCSc1cc(Cl)cc2c(-c3ccnc(Nc4ccccc4)n3)c(-c3ccc(F)cc3)nn12 [Example 9, N-{4-[5-Chloro-7-(ethylsulfanyl)-2-(4-fluorophenyl)pyrazolo[1,5-α]pyridin-3-yl]-2-pyrimidinyl}-N-phenylamine] | 5.70
10 | COc1ccc(-c2nn3c(NC4CCCC4)cccc3c2-c2ccnc(Nc3cccc(CO)c3)n2)cc1 [Example 11, [3-({4-[7-(Cyclopentylamino)-2-(4-methoxyphenyl)pyrazolo[1,5-α]pyridin-3-yl]-2-pyrimidinyl}amino)phenyl]methanol] | 6.15
11 | Fc1ccc(-c2nn3c(NC4CCCC4)cccc3c2-c2ccnc(Nc3ccccc3)n2)cc1 [Example 1, 3-(2-Anilino-4-pyrimidinyl)-N-cyclopentyl-2-(4-fluorophenyl)pyrazolo[1,5-α]pyridin-7-amine] | 6.30
12 | Fc1ccc(Nc2nccc(-c3c(-c4ccc(F)cc4)nn4c(NC5CCCC5)cccc34)n2)cc1 [Example 4, N-Cyclopentyl-3-[2-(4-fluoroanilino)-4-pyrimidinyl]-2-(4-fluorophenyl)pyrazolo[1,5-α]pyridin-7-amine] | 6.22
13 | COc1ccc(-c2nn3c(NC4CCCC4)cccc3c2-c2ccnc(Nc3cccc(C(=O)c4ccccc4)c3)n2)cc1 [Example 5, [3-({4-[7-(Cyclopentylamino)-2-(4-methoxyphenyl)pyrazolo[1,5-α]pyridin-3-yl]-2-pyrimidinyl}amino)phenyl](phenyl)methanone] | 5.55
